Assay results reported in patent US9611262B2, “Substituted 2-azabicycles and their use as orexin receptor modulators” (JANSSEN PHARMACEUTICA NV, priority 2014, dated 2017).

Legend:
rat orexin 1 receptor = rat orexin 1 receptor (Rattus norvegicus, UniProt P56718); test: Rat orexin 1 receptor radioligand binding (competitive); details: HEK293 cells stably expressing rat orexin 1 receptor; 4 nM radioligand; averages of 2-20 runs; read-out: rOX1 Ki
Summary of the method: (§1)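 Competition binding used HEK293 cells expressing rat OX1 or CHO cells expressing human OX1, with 4 nM final [3H]-labelled thiazolyl-oxadiazolyl-pyrrolidinyl methanone radioligand in PBS. Compounds were tested at 7 concentrations (0.1 nM–10 μM) for 60 min at room temperature, then filtered; 10 μM almorexant defined nonspecific binding. Ki was derived from the one-site IC50 and the radioligand Kd.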

human orexin 1 receptor = human orexin 1 receptor (Homo sapiens (Human), UniProt O43613); test: Human orexin 1 receptor radioligand binding (competitive); details: CHO cells stably expressing human orexin 1 receptor; 4 nM radioligand; averages of 2-20 runs; read-out: hOX1 Ki
Sequence of human orexin 1 receptor (O43613 whole entry): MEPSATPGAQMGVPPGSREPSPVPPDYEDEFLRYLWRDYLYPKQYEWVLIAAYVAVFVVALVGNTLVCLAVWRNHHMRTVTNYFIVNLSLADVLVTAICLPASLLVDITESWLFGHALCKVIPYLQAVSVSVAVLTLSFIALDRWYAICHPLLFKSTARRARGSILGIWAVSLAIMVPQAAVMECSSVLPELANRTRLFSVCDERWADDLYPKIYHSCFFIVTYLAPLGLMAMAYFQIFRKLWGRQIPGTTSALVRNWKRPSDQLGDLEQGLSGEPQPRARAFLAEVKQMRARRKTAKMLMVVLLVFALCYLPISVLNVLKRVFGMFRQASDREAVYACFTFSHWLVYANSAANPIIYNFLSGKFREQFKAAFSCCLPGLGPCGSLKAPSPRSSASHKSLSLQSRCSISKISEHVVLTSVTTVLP
Summary of the method: as §1

human orexin 2 receptor = human orexin 2 receptor (Homo sapiens (Human), UniProt O43614); test: Human orexin 2 receptor radioligand binding ([3H]-EMPA competition); details: HEK293 stably expressing human orexin 2 receptor; 2 nM [3H]-EMPA; averages of 2-20 runs; read-out: hOX2 Ki
Sequence of human orexin 2 receptor (O43614 whole entry): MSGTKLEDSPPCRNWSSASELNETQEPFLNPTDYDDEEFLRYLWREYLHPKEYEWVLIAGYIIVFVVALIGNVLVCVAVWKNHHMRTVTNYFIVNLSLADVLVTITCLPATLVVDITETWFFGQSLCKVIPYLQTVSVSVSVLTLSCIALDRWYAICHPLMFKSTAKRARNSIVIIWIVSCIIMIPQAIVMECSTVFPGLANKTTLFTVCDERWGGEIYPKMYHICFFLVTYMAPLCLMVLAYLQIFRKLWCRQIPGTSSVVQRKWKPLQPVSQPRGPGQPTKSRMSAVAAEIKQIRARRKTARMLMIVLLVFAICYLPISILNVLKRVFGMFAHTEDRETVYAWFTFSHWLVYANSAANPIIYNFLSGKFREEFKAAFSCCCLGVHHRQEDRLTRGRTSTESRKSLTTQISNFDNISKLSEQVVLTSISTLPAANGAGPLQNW
Summary of the method: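 Membranes-free whole HEK293 cells stably expressing human OX2 receptor incubated with [3H]-EMPA and compound (7 concentrations, 0.1 nM–10 μM, ≤0.1% DMSO) for 60 min at room temperature; nonspecific binding with 10 μM almorexant. Filtration and scintillation counting; one-site IC50 converted to Ki using predetermined Kd, triplicates averaged over 2-20 runs.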

| Structure (SMILES) | Ki (rat orexin 1 receptor) | Ki (human orexin 1 receptor) | Ki (human orexin 2 receptor) |
| --- | --- | --- | --- |
| Cc1ccc(-n2nccn2)c(C(=O)N2[C@H](C)[C@@H]3CC[C@H]2[C@H](Oc2ccc(C(F)(F)F)cn2)C3)n1 [Example 156, [6-methyl-3-(triazol-2-yl)-2-pyridyl]-[(1R,2R,4S,5R)-2-methyl-5-[[5-(trifluoromethyl)-2-pyridyl]oxy]-3-azabicyclo[2.2.2]octan-3-yl]methanone] | 6 nM | 10 nM | 1100 nM |
| Cc1ccc(-c2ncccn2)c(C(=O)N2[C@H](C)[C@@H]3CC[C@H]2[C@H](Oc2ccc(C(F)(F)F)cn2)C3)n1 [Example 158, (6-methyl-3-pyrimidin-2-yl-2-pyridyl)-[(1R,2R,4S,5R)-2-methyl-5-[[5-(trifluoromethyl)-2-pyridyl]oxy]-3-azabicyclo[2.2.2]octan-3-yl]methanone] | 35 nM | 138 nM | 2700 nM |
| Cc1cnc(C(=O)N2[C@H](C)[C@@H]3CC[C@H]2[C@H](Oc2ccc(C(F)(F)F)cn2)C3)c(-n2nccn2)c1 [Example 160, [5-methyl-3-(triazol-2-yl)-2-pyridyl]-[(1R,2R,4S,5R)-2-methyl-5-[[5-(trifluoromethyl)-2-pyridyl]oxy]-3-azabicyclo[2.2.2]octan-3-yl]methanone] | 8 nM | 11 nM | 872 nM |
| Cc1cnc(C(=O)N2[C@H](C)[C@@H]3CC[C@H]2[C@H](Oc2ccc(C(F)(F)F)cn2)C3)c(-c2ncccn2)c1 [Example 161, (5-methyl-3-pyrimidin-2-yl-2-pyridyl)-[(1R,2R,4S,5R)-2-methyl-5-[[5-(trifluoromethyl)-2-pyridyl]oxy]-3-azabicyclo[2.2.2]octan-3-yl]methanone] | 4 nM | 8 nM | 5000 nM |
| C[C@@H]1[C@H]2C[C@@H](Oc3ccc(C(F)(F)F)cn3)[C@H](C2)N1C(=O)c1ccccc1-c1ccc(F)nc1 [Example 171, [2-(6-fluoro-3-pyridyl)phenyl]-[(1R,2R,4S,5R)-2-methyl-5-[[5-(trifluoromethyl)-2-pyridyl]oxy]-3-azabicyclo[2.2.1]heptan-3-yl]methanone] | 23 nM | 17 nM | 1600 nM |
| C[C@@H]1[C@H]2C[C@@H](Oc3ccc(C(F)(F)F)cn3)[C@H](C2)N1C(=O)c1ccccc1-c1ccnc(F)c1 [Example 172, [2-(2-fluoro-4-pyridyl)phenyl]-[(1R,2R,4S,5R)-2-methyl-5-[[5-(trifluoromethyl)-2-pyridyl]oxy]-3-azabicyclo[2.2.1]heptan-3-yl]methanone] | 66 nM | 67 nM | > 10000 nM |
| C[C@@H]1[C@H]2C[C@@H](Oc3ccc(C(F)(F)F)cn3)[C@H](C2)N1C(=O)c1ccccc1-c1cccc([N+](=O)[O-])n1 [Example 174, [(1R,2R,4S,5R)-2-methyl-5-[[5-(trifluoromethyl)-2-pyridyl]oxy]-3-azabicyclo[2.2.1]heptan-3-yl]-[2-(6-nitro-2-pyridyl)phenyl]methanone] | 8 nM | 9 nM | 3940 nM |
| C[C@@H]1[C@H]2C[C@@H](Oc3ccc(C(F)(F)F)cn3)[C@H](C2)N1C(=O)c1ccccc1-c1cccc(Br)n1 [Example 175, [2-(6-bromo-2-pyridyl)phenyl]-[(1R,2R,4S,5R)-2-methyl-5-[[5-(trifluoromethyl)-2-pyridyl]oxy]-3-azabicyclo[2.2.1]heptan-3-yl]methanone] | 13 nM | 15 nM | 837 nM |
| Cc1ccc(-n2nccn2)c(C(=O)N2[C@H](CO)[C@@H]3CC[C@H]2[C@H](Oc2ccc(C(F)(F)F)cn2)C3)n1 [Example 176, [(1R,2S,4S,5R)-2-(hydroxymethyl)-5-[[5-(trifluoromethyl)-2-pyridyl]oxy]-3-azabicyclo[2.2.2]octan-3-yl]-[6-methyl-3-(triazol-2-yl)-2-pyridyl]methanone] | 33 nM | 35 nM | 8100 nM |

Results, then the compound that gave them:

| Ki (rat orexin 1 receptor) | Ki (human orexin 1 receptor) | Ki (human orexin 2 receptor) | Structure (SMILES) |
| --- | --- | --- | --- |
| 43 nM | 35 nM | 4170 nM | O=C(c1cc(F)ccc1-c1ncc(F)cn1)N1[C@H](CF)[C@@H]2CC[C@H]1[C@H](Oc1ccc(C(F)(F)F)cn1)C2 [Example 80, (5-fluoro-2-(5-fluoropyrimidin-2-yl)phenyl)((1S,3S,4R,6R)-3-(fluoromethyl)-6-((5-(trifluoromethyl)pyridin-2-yl)oxy)-2-azabicyclo[2.2.2]octan-2-yl)methanone] |
| 7 nM | 5 nM | 146 nM | Cc1ccc(-n2nccn2)c(C(=O)N2[C@H](C)[C@H]3C[C@@H](Oc4ccc(C(F)F)cn4)[C@@H]2C3)n1 [Example 110, [(1R,2R,4S,5R)-5-[[5-(difluoromethyl)-2-pyridyl]oxy]-2-methyl-3-azabicyclo[2.2.1]heptan-3-yl]-[6-methyl-3-(triazol-2-yl)-2-pyridyl]methanone] |
| 12 nM | 14 nM | 2400 nM | C[C@@H]1[C@@H]2CC[C@@H]([C@H](Oc3ccc(C(F)(F)F)cn3)C2)N1C(=O)c1cccc(F)c1-c1ncccn1 [Example 148, (3-fluoro-2-pyrimidin-2-yl-phenyl)-[(1R,2R,4S,5R)-2-methyl-5-[[5-(trifluoromethyl)-2-pyridyl]oxy]-3-azabicyclo[2.2.2]octan-3-yl]methanone] |
| 29 nM | 129 nM | 6000 nM | C[C@@H]1[C@@H]2CC[C@@H]([C@H](Oc3ccc(C(F)(F)F)cn3)C2)N1C(=O)c1ccccc1-n1nccn1 [Example 157, [(1R,2R,4S,5R)-2-methyl-5-[[5-(trifluoromethyl)-2-pyridyl]oxy]-3-azabicyclo[2.2.2]octan-3-yl]-[2-(triazol-2-yl)phenyl]methanone] |
| 14 nM | 41 nM | 2800 nM | C[C@@H]1[C@@H]2CC[C@@H]([C@H](Oc3ccc(C(F)(F)F)cn3)C2)N1C(=O)c1ncccc1-n1nccn1 [Example 159, [(1R,2R,4S,5R)-2-methyl-5-[[5-(trifluoromethyl)-2-pyridyl]oxy]-3-azabicyclo[2.2.2]octan-3-yl]-[3-(triazol-2-yl)-2-pyridyl]methanone] |
| 236 nM | 106 nM | > 10000 nM | C[C@@H]1[C@@H]2CC[C@@H]([C@@H](Oc3ccc(C(F)(F)F)cn3)C2)N1C(=O)c1cccc(F)c1-c1ncccn1 [Example 162, (3-fluoro-2-pyrimidin-2-yl-phenyl)-[(1R,2R,4S,5S)-2-methyl-5-[[5-(trifluoromethyl)-2-pyridyl]oxy]-3-azabicyclo[2.2.2]octan-3-yl]methanone] |
| 14 nM | 20 nM | 1380 nM | C[C@@H]1[C@H]2C[C@@H](Oc3ccc(C(F)(F)F)cn3)[C@H](C2)N1C(=O)c1ccccc1-n1ncc(CCCF)n1 [Example 168, [2-[4-(3-fluoropropyl)triazol-2-yl]phenyl]-[(1R,2R,4S,5R)-2-methyl-5-[[5-(trifluoromethyl)-2-pyridyl]oxy]-3-azabicyclo[2.2.1]heptan-3-yl]methanone] |
| 8 nM | 8 nM | 4700 nM | Cc1ccc(C(=O)N2[C@H](C)[C@H]3C[C@@H](Oc4ccc(Cl)cn4)[C@@H]2C3)c(-n2nccn2)n1 [Example 193, [(1R,2R,4S,5R)-5-[(5-chloro-2-pyridyl)oxy]-2-methyl-3-azabicyclo[2.2.1]heptan-3-yl]-[6-methyl-2-(triazol-2-yl)-3-pyridyl]methanone] |
